This is an account of results in patent publication US6172112A, “Retinoids and use thereof” (priority 1999, dated 2001).

The target in test [1] is T1, RARα (Homo sapiens, UniProt P10276).
T1 sequence (P10276 1-462): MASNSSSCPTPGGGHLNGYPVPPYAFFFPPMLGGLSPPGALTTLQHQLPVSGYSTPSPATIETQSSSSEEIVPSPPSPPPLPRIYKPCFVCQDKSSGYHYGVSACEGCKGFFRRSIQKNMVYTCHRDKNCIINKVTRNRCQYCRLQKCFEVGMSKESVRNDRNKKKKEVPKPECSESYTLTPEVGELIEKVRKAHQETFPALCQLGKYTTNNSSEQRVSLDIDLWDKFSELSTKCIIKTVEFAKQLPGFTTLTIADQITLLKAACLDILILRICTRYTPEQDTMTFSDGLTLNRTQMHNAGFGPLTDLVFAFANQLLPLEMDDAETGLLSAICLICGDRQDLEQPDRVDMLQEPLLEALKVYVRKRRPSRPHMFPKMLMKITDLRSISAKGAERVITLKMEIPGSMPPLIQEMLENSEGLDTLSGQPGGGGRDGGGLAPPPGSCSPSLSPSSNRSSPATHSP
Particulars: CV-1 cells.
Experimental: The antagonistic effects of UAB30 retinoids on the transcription of RARα were determined in CV-1 cells. The methods are nearly identical to those used to perform transcriptional assays. […] After 24 hours, cells were harvested and the transcriptional effects were measured relative CAT activity, after correction with β-gal activity for transfection efficiency. […] All experiments were performed in triplicate, and the data were averaged. […] These assays were performed in CV-1 cells with the RAR or RXR gene and the chloramphenicol acetyltransferase (CAT) reporter gene containing TREpal with a thymidine kinase promoter [(TREpal)2 -tk-CAT]. Twenty-four hours after transfection, cells were treated with a single dose of retinoid and the cell extracts were assayed for b-galactosidase and CAT activity. The antagonistic effects of UAB30 retinoids on the transcription of RAR-α were also determined in CV-1 cells. The methods are nearly identical to those used to perform transcriptional assays. These studies utilized the CAT reporter gene [(TREpal)2 -tk-CAT]. […] After 24 hours, cells were harvested and the transcriptional effects were measured in relative CAT activity, after correction with β-galactosidase activity for transfection efficiency. […] Experiments were performed in triplicate and the data were averaged.

Test [2] relates to NB4 cells. Particulars: alone; previously shown by Breitman and coworkers; cited from earlier work.
The subject of test [3] is JMML cells. As to the kind of experiment: inhibition of JMML spontaneous CFU-GM colony formation. Conditions: Homo sapiens.
Experimental: Mononuclear cells were separated by density gradient centrifugation, washed, and frozen in aliquots. […] No growth factors or other exogenous stimuli were added to the cultures. UAB retinoids and retinoic acid isomers were dissolved in either 100% ethanol or DMSO. Appropriate dilutions were made, and controls using the respective ethanol or DMSO concentration were set up in parallel. Varying doses of retinoids were added only once, 24 hours after initiation of the soft agar assays, by pipetting the retinoid solution on top of the soft agar and allowing the solution to enter the agar and interact with the cells by diffusion. The cultures were incubated for 14 days at 37° C. in a humidified atmosphere with 5% CO2.
Test [4] concerns HL-60 cells. As to the kind of experiment: retinoid induction of differentiation of HL-60 cells (NBT). The format is cell-based. Conditions: Homo sapiens, HL-60, 96 h; 4-day induction of differentiation; read-out: ED50 (nM) HL-60. The method, then: (§1) Human leukemia cell line HL-60 and NB4 were used for measuring the ability of retinoids to induce terminal differentiation. Both cell lines are predominantly promyelocytes and are induced by retinoic acid to mature to cells with many characteristics of mature granulocytes. The induction of this differentiation is the basis for assaying one of the biological activities of retinoic acid analogues. For the differentiation assay, HL-60 or NB4 cells were grown in nutrient medium with fetal bovine serum as detailed by Breitman (15).
(§2) The percentage of cells that gained this marker was measured microscopically. The percentage of positive cells was then plotted as a function of the retinoid concentration to determine ED50 and ED30 values used in the formation of isoboles.

The subject of test [5] is NB4 cells. As to the kind of experiment: retinoid induction of differentiation of NB4 cells (NBT). The format is cell-based, Human. Particulars: for EC30: read-out: ED30 NB4 cell differentiation. The procedure: NB4 cells were obtained from Dr. Waxman after he received them from Dr. M. Lanotte. […] The cell were grown at 37° C. in a humidified atmosphere of 5% CO2 in air. Cell density was estimated on an electronic particle counter (Coulter electronic, Hialeah, Fla.) and cell viability with trypan bleu dye exclusion.
as §1, §2

Test [6] has as its target T2, chick skin CRABP (Gallus gallus, UniProt A0A8V1AB82).
T2 sequence (A0A8V1AB82 88-225): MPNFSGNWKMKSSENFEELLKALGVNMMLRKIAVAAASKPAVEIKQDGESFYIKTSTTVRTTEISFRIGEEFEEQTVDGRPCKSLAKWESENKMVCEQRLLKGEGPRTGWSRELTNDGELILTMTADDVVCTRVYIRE
As to the kind of experiment: chick skin CRABP radioligand binding assay. Conditions: [3H]-(all-E)-RA radioligand.

Test [7] has as its system mouse skin papilloma. Particulars: 45.9 nmol dose.
Experimental: The mouse skin antipapilloma assay measured the ED50 values for retinoid tumor inhibition on the dorsal skin of mice. The inhibition of mouse skin papilloma by retinoids was performed according to a modification of the procedure developed by Verma and Boutwell (14) as reported previously by Muccio et al. (8).
The UAB30 retinoids were evaluated next for their activity in preventing the chemical induction of papillomas on mouse skin (14).
Test [8] relates to mouse skin papilloma. Particulars: ref (8); cited from earlier work.
For test [9], the system named is acute promyelocytic leukemia (APL). Particulars: patients with APL; cited from earlier work.

Entries after “also recorded” stand apart in the source; their conditions may differ. Like-named read-outs stand apart in the source and are kept apart here.

As for `CCCCCCCOc1cc2c(cc1/C(C)=C/c1ccc(C(=O)O)cc1)C(C)(C)CCS2(=O)=O` [Ro-41-5253], the “antagonism of (all-E)-RA induced RARα transcription” value in [1] is on record as “two-fold more active; also recorded: exhibited antagonism at each concentration of (all-E)-RA”.
Turning to `CC1=C(/C=C/C(C)=C/C=C/C(C)=C/C(=O)Nc2ccc(O)cc2)C(C)(C)CCC1` [4-HPR, 4-hydroxyphenylretinamide], in test [2], the “NB4 cell differentiation” value was “does not induce NB4 cells to differentiate”.
Broadly, the inhibition is the change of the read-out against control, counted positive when it falls. Usually IC50 stands for the midpoint of a concentration-inhibition curve. Consider `CC1=C(/C=C/C(C)=C/C=C/C(C)=C/C(=O)O)C(C)(C)CCC1` [(all-E)-RA, all-trans-retinoic acid, reference compound], for which the inhibition at 0.1 µM is 74% in [3] (read-out: normalized percent inhibition of CFU-GM colony growth, patient J43 (%), 10^-7 M) and 88% in test [3] (read-out: normalized percent inhibition of CFU-GM colony growth, patient J83 (%), 10^-7 M). Further, the inhibition at 0.01 µM in test [3] (read-out: normalized percent inhibition of CFU-GM colony growth, patient J84 (%), 10^-8 M) turned out to be 33%. In addition, the inhibition at 1 µM stood at 85% in test [3] (read-out: percent inhibition of CFU-GM colony growth (not normalized), 10^-6 M, J43 patient cells); 78% in test [3] (read-out: percent inhibition of CFU-GM colony growth (not normalized), 10^-6 M, J83 patient cells); 61% in test [3] (read-out: percent inhibition of CFU-GM colony growth (not normalized), 10^-6 M, J84 patient cells). Besides, the EC50 in test [4] turned out to be 120 nM; in test [5] (Homo sapiens, NB-4, 96 h, 4-day induction of differentiation, read-out: ED50 (nM) NB4), 610 nM. Further, the EC30 in [5] (in combination with 9-cis-UAB30 (1:10), day 3) was determined as 50 nM; in [5] (in combination with all-trans-UAB30 (1:10)) it was 2800 nM; in test [5] (retinoid alone, 3 days), 810 nM. This compound also showed an IC50 in test [6] of 600 nM. In [7], the “prevention of papilloma (tumor) formation” value amounted to 95%. Besides, in test [8], the “ED50 skin antipapilloma assay” value is 3.0 nmol. The complete remission rate in test [9] is 90%.
